Reference: US10336721B2, “Biaryltriazole inhibitors of macrophage migration inhibitory factor” (YALE UNIVERSITY, priority 2015, dated 2019)
Converted amounts (≈) assume the structure as drawn.

Experiments:
human MIF [1] = molecular target: T1, human MIF (Homo sapiens (Human), UniProt P14174); assay: X-ray crystallography of complexes with human MIF; type: binding
Procedure: The solution was centrifuged at 13,000×g to remove precipitated compound and used to set up hanging-drop crystallization experiments. A reservoir of 2.0 M ammonium sulfate, 0.1 M Tris pH 7, and 3% isopropanol was added to the protein solution in a 1:1 ratio and stored at 20° C. Diffraction-quality crystals with a rod morphology grew within two weeks. The crystals were cryo-protected in 25% glycerol, 2.0M ammonium sulfate, 0.1 M Tris pH 7, and 3% isopropanol. Data was collected at the Advanced Photon Source remotely on the NE-CAT 24-ID-E beam line. […] Crystals were obtained by the hanging-drop method at 20° C. A reservoir of 2.2 M ammonium sulfate, 0.1 M Tris pH 7, and 3% isopropanol mixed in a 1:1 ratio with rhMIF (16 mg/mL) was used to produce 2 μL drops. […] Crystals were cryo-protected with 25% glycerol, 2.2 M ammonium sulfate, 0.1 M Tris pH 7, and 3% isopropanol. […] HKL2000 was used to index, integrate, and scale the MIF-3a data set in the […] space group and the MIF-3b in the P212121 space group. Phases were obtained by molecular replacement with PDB file 3U18 using the CCP4 and PHASER programs. Model building was performed in COOT with iterative restrained refinement with REFMAC.

human MIF [2] = molecular target: T1, human MIF; assay: Inhibition of tautomerase activity of human MIF (HPP substrate); type: biochemical; details: MIF tautomerase, HPP substrate, 50 nM MIF
Aqueous solubility = type: physicochemical; details: aqueous solvent (not further specified), μg compound/mL solvent

SMILES	binding site from X-ray crystal structure of complex (human MIF [1])	Ki (human MIF [2]) [nM]	solubility (Aqueous solubility) [µg/mL]
Oc1ccc(-n2cc(-c3ccc4ccccc4n3)nn2)cc1 [Example 3a, 4-(4-(quinolin-2-yl)-1H-1,2,3-triazol-1-yl)phenol]	confirm the binding of these inhibitors in the tautomerase active site		
COCCOc1ccc2nc(-c3cn(-c4ccc(O)cc4)nn3)ccc2c1 [Example 3b, 4-(4-(6-(2-methoxyethoxy)quinolin-2-yl)-1H-1,2,3-triazol-1-yl)phenol]	confirm the binding of these inhibitors in the tautomerase active site		
Oc1ccc(-n2cc(-c3ccc4cc(OCCOCCN5CCOCC5)ccc4n3)nn2)cc1 [Example 3v, 4-(4-(6-(2-(2-morpholinoethoxy)ethoxy)quinolin-2-yl)-1H-1,2,3-triazol-1-yl)phenol]	confirm the binding of these inhibitors in the tautomerase active site		
O=C(O)COCCOc1ccc2nc(-c3cn(-c4ccc(O)c(F)c4)nn3)ccc2c1 [Example 44, 2-(2-((2-(1-(3-Fluoro-4-hydroxyphenyl)-1H-1,2,3-triazol-4-yl)quinolin-6-yl)oxy)ethoxy)acetic acid]		45	867 (≈ 2040 µM)
O=C(O)COc1ccc2nc(-c3cn(-c4ccc(O)cc4)nn3)ccc2c1 [Example 45]			364 (≈ 1010 µM)
